In US9109048B2, “Inhibition of tumor growth” (priority 1998, dated 2015):
Blank lines part the entries; values can stand above or below the substance they belong to. Ends that are not written are not given here.

What was measured:
Assay type in all cases: cell-based
[1] = tested on: Staphylococcus aureus ATCC 25923; assay: MIC (minimum inhibitory concentration) test, microdilution
Method: (§1) The bacterial strains used were: Escherichia coli ATCC 25922 and Staphylococcus aureus ATCC 25923. All strains were stored at −70° C. The bacteria were grown in 2% Bacto Peptone water (Difco 1807-17-4). All tests were performed with bacteria in mid-logarithmic growth phase. Determination of the minimum inhibitory concentration (MIC) of the peptides for bacterial strains were performed in 1% Bacto Peptone water. A standard microdilution technique with an inoculum of 2×10^6 CFU/ml was used. All assays were performed in triplets. Since the peptides are positively charged and therefore could adhere to the plastic wells, we controlled the actual concentration of the peptides in the solution by HPLC. There was no difference between the concentration of the peptides before or after adding the solution to the plastic wells.

[2] = tested on: Escherichia coli ATCC 25922; assay: as above; details: for Mic E-coli: Table 19
Method: as §1

human red blood cells = assay: Hemolytic assay; details: red cells of human
Method: The hemolytic activities of the peptides were determined using fresh human red blood cells. 8 ml blood was taken from a healthy person. 4 ml blood was transferred to a polycarbonate tube containing heparin to a final concentration of 10 U/ml, and the remaining 4 ml blood was transferred to a glass tube containing EDTA with final concentration of 15% EDTA. The erythrocytes were isolated from heparin-treated blood by centrifugation in 1500 rpm for 10 min and washed three times with phosphate-buffered saline (PBS) to remove plasma and buffy coat. The cell pellet was resuspended in PBS to make the final volume of 4 ml. The peptide was diluted to a concentration of 2 mg/ml and 0.1 mg/ml. The peptide was further diluted to the concentrations as stated in Table 1. For each tube PBS was added first, then RBCs and peptide solutions. The hematocrit in the blood treated with EDTA was determined after 30 min with Sysmex K-1000, and the resuspended RBCs were diluted into 10% hematocrit. RBCs in PBS (1%) with and without peptides (Table 18) were incubated in a shaker at 37° for 1 hour and then centrifuged at 4000 rpm for 5 min. The supernatant were carefully transferred to new polycarbonate tubes and the absorbance of the supernatant was measured at 540 nm. Baseline hemolysis was hemoglobin released in the presence of PBS, and 100% hemolysis was hemoglobin released in the presence of 0.1% Triton X-100.

Substance: PAIRKAFRWAWRMLKKAA [LFB 14-31A2,6,10,17F7I3K16L14R4]
Mic S. Aureus ([1]; Table 19): 2/4 | Mic E-coli [2]: 2/4

Substance: PAWFKARRWAWRMLKKAA-OH [LFB 14-31 A2,6,10,17 K16L14]
EC50 (human red blood cells): > 440 µM | EC 50 (toxicity, hemolysis) (human red blood cells): >1000 µg/mL | MIC S. aureus ([1]; ATCC 25923): 4.4 µM | MIC S. aureus ([1]; Table 15): 10.0 µg/mL | MIC E. coli ([2]; ATCC 25922): 4.4 µM | MIC E. coli ([2]; Table 15): 10.0 µg/mL

Substance: PAWRKAFRWAIRMLKKAA [LFB 14-31A2,6,10,17F7I11K16L14R4]
Mic E-coli [2]: 2/5

Substance: PAWRKAFRWAWRMKKLAA-OH [LFB 14-31 A2,6,10,17F7R4]
EC50 (human red blood cells): > 440 µM | EC 50 (toxicity, hemolysis) (human red blood cells): >1000 µg/mL | MIC E. coli ([2]; ATCC 25922): 4.4 µM | MIC E. coli ([2]; Table 8): 10 µg/mL | MIC E. coli ([2]; Table 15): 10.0 µg/mL

Substance: PAWRKAFRWAWRMLKKAA-OH [LFB 14-31 A2,6,10,17 F7K16L14R4]
Mic E-coli [2]: 2/4

Substance: PAWRKARRWARRMKKLAA-OH [LFB 14-31 A2,6,10,17R4,11]
EC 50 (toxicity, hemolysis) (human red blood cells): >1000 µg/mL

Substance: YRMWRWAWRWR-NH2 [LFB 17-27 A7 M3 R2,11 W4,10 Y1 NH2]
MIC E. coli ([2]; ATCC 25922): 5.7 µM | MIC E. coli ([2]; Table 15): 10.0 µg/mL

More lines, main results first:

MIC S. aureus ([1]; ATCC 25923): 10 µg/mL | MIC E. coli ([2]; ATCC 25922): 5 µg/mL
Substance: GIGKFLKKARKWGRAWVRILKKG [Tosmag W12,16]

MIC S. aureus ([1]; ATCC 25923): >100 µg/mL | MIC E. coli ([2]; ATCC 25922): >100 µg/mL
Substance: GIGKFWHWAKKFGKAFVGEIMNS [Mag 2 W 6,8]

MIC S. aureus ([1]; ATCC 25923): 200 µg/mL | Minimum inhibitory concentration (MIC) S. aureus ATCC 25923 ([1]; Table 1, value in parentheses): 124 µM | MIC E. coli ([2]; ATCC 25922): 100 µg/mL | Minimum inhibitory concentration (MIC) E. coli ATCC 25922 ([2]; Table 1, value in parentheses): 62 µM
Substance: RRWQWRMKKLGA-OH [LFB 20-31]

MIC S. aureus ([1]; ATCC 25923): 2.5 µg/mL | MIC E. coli ([2]; ATCC 25922): 10 µg/mL
Substance: YRAWRWAWRWR-NH2 [LFM 17-27 A7R2,8,9W3,4,10Y1 NH2, TYR-ARG-ALA-TRP-ARG-TRP-ALA-TRP-ARG-TRP-ARG-CONH2]

MIC E. coli ([2]; ATCC 25922): 7.0 µM | MIC E. coli ([2]; Table 12): 10 µg/mL | MIC E. coli ([2]; Table 15): 10.0 µg/mL
Substance: YRWARWWRR-NH2 [LFM 17-25 A4R2,8,9W3,7Y1NH2]
EC50 (human red blood cells): > 697 µM | EC 50 (toxicity, hemolysis) (human red blood cells): >1000 µg/mL
